What all share (format): biochemical
For one assay, the target named is T1, human factor XIa (Homo sapiens, UniProt P03951).
T1 construct: purchased Haemochrom Diagnostica GmbH, Essen, Germany
The experiment in a line: Inhibitory constants for factor XIa (substrate H-D-Lys(Z)-Pro-Arg-pNA, Chromozym PCa). Conditions: read-out: Ki F XIa. Here is the method:
(§1) The inhibitory effect for the individual enzymes was determined in analogy with a method which has already been described (Stürzebecher et al., J. Med. Chem. 40, 3091-3099, 1997).
(§2) After 3 min, the reaction was terminated by adding 25 μl of acetic acid (50%) and the absorption at […] was determined using a Microplate Reader (Labsystems iEMS Reader MF). The Ki values were determined, in accordance with Dixon (Biochem. J. 55, 170-171, 1953), by means of linear regression and using a computer program. The Ki values are the mean of at least three determinations.
(§3) The inhibition of factor XIa and factor XIIa was determined in an analogous manner. When determining the inhibitory constants for human factor XIa (Haemochrom Diagnostica GmbH, Essen, Germany), H-D-Lys(Z)-Pro-Arg-pNA (Chromozym PCa, Roche Diagnostics GmbH, Mannheim, Germany) was used as the substrate.

The target in the next assay is T2, human factor XIIa (Homo sapiens, UniProt P00748).
T2 construct: purchased Haemochrom Diagnostica GmbH, Essen, Germany
T2 sequence (P00748 373-615 limits assumed, other chains not shown): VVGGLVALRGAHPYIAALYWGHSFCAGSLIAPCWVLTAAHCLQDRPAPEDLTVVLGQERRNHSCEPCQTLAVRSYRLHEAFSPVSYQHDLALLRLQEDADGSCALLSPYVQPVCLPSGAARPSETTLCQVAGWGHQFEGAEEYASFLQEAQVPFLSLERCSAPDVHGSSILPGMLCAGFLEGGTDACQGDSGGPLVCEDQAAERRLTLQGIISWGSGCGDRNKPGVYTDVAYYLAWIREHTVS
Nature of the assay: Inhibitory constants for factor XIIa (substrate H-D-HHT-Gly-Arg-pNA, Chromozym XII). As to conditions: read-out: Ki F XIIa. As for the experimental part:
as §1, §2, §3
H-D-HHT-Gly-Arg-pNA (Chromozym XII, Roche Diagnostics GmbH, Mannheim, Germany) was used as the substrate for measuring the inhibitory constants of human factor XIIa (Haemochrom Diagnostica GmbH, Essen, Germany).

In a further assay the target is thrombin (UniProt P00735). The experiment in a line: Inhibitory constants for thrombin. As to conditions: read-out: Ki Thrombin.
The target in a further assay is plasma kallikrein (PK) (Homo sapiens, UniProt P03952). The experiment in a line: Determining the inhibitory constants: inhibition of PK (substrate Bzl-Pro-Phe-Arg-pNA). Conditions: Tris buffer pH 8.0, 25° C.; mean of at least three determinations. Here is the method: as §1, §2
Chain of plasma kallikrein (PK) (P03952 391-638 limits assumed, species assumed): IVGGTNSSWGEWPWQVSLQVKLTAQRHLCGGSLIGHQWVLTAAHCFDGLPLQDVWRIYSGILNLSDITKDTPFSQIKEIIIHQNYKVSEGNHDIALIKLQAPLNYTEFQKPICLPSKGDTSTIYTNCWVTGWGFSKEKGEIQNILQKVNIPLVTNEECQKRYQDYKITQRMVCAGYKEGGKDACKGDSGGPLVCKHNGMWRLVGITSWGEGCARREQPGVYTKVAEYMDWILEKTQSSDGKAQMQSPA
Chain of plasma kallikrein (PK) (P03952 20-390 partner limits assumed, species assumed): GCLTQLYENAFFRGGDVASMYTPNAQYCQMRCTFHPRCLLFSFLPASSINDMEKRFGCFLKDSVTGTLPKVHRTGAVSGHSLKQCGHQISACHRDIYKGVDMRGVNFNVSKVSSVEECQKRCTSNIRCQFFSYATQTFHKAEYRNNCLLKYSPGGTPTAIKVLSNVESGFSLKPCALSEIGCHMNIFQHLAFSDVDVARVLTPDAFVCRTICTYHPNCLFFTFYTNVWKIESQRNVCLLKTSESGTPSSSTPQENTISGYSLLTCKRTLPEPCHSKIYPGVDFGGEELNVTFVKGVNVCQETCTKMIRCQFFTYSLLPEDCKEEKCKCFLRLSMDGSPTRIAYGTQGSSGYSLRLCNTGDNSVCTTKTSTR

T1 sequence (P03951 388-625 limits assumed): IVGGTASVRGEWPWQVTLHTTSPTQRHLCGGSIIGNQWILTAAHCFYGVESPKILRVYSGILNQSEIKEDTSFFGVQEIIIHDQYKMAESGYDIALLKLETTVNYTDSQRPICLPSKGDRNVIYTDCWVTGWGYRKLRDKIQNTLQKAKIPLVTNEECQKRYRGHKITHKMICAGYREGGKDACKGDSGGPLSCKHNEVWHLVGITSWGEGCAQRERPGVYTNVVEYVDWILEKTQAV
T1 sequence (P03951 19-387 partner limits assumed): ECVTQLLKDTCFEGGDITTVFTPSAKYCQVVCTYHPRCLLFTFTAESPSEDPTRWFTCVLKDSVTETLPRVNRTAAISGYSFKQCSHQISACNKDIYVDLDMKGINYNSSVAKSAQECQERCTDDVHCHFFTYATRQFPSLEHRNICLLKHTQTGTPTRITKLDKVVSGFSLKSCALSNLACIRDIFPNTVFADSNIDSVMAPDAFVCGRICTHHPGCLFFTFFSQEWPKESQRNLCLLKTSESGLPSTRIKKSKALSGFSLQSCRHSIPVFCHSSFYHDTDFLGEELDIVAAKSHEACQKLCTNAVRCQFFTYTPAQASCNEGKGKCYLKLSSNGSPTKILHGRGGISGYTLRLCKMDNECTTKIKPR

As for `CC(C)(C)OC[C@@H](NS(=O)(=O)Cc1ccccc1)C(=O)N[C@@H](CCCCN)C(=O)NCc1ccc(C(=N)N)cc1` [Inhibitor 35], the Ki on human factor XIa stood at 0.51 µM; at human factor XIIa, 4.4 µM; on thrombin it was 0.055 µM; on plasma kallikrein (PK) it was 0.0036 µM.
The corresponding values for `CC(C)(C)OC[C@@H](NS(=O)(=O)Cc1ccccc1)C(=O)N[C@@H](CNC(=O)OCc1ccccc1)C(=O)NCc1ccc(C(=N)N)cc1` [Inhibitor 34] are 0.31 µM, 0.93 µM, 0.37 µM and 0.025 µM.
Regarding `N=C(N)c1ccc(CNC(=O)[C@H](CCCCNC(=O)OCc2ccccc2)NC(=O)[C@@H](CO)NS(=O)(=O)Cc2ccccc2)cc1` [Inhibitor 11], the Ki was 0.3 µM at human factor XIa, 15 µM on human factor XIIa, 0.18 µM at thrombin and 0.0035 µM at plasma kallikrein (PK).
The corresponding values for `N=C(N)NCc1cccc(C[C@@H](NS(=O)(=O)Cc2ccccc2)C(=O)NCC(=O)NCc2ccc(C(=N)N)cc2)c1` [Inhibitor 79] are 0.22 µM, 0.31 µM, 0.059 µM and 0.075 µM.
On the same counts, the results for `N=C(N)c1ccc(CNC(=O)C2CCCN2C(=O)C(CO)NS(=O)(=O)Cc2ccccc2)cc1` (centres unmarked) [Inhibitor 3] are 0.1 µM, 5.1 µM, 0.012 µM and 0.054 µM.
The corresponding values for `N=C(N)c1ccc(CNC(=O)[C@@H]2CCCN2C(=O)[C@@H](CO)NS(=O)(=O)Cc2ccc(C(=O)O)cc2)cc1` [Inhibitor 61] are 0.014 µM, 29 µM, 0.24 µM and 0.0091 µM.
Regarding `CC(C)(C)OC[C@@H](NS(=O)(=O)Cc1ccccc1)C(=O)N[C@@H](CCC(=O)O)C(=O)NCc1ccc(C(=N)N)cc1` [Inhibitor 30], the Ki turned out to be 0.079 µM on human factor XIa, 19 µM on human factor XIIa, 2.6 µM at thrombin and 0.36 µM at plasma kallikrein (PK).
The corresponding values for `C[C@@H](OCc1ccccc1)[C@H](NC(=O)[C@@H](CO)NS(=O)(=O)Cc1ccccc1)C(=O)NCc1ccc(C(=N)N)cc1` [Inhibitor 14] are 0.33 µM, 23 µM, 0.3 µM and 0.091 µM.
On the same counts, the results for `CC(C)(C)OC[C@@H](NS(=O)(=O)Cc1ccc(C#N)cc1)C(=O)N1CCC[C@H]1C(=O)NCc1ccc(C(=N)N)cc1` [Inhibitor 51] are 0.0091 µM, 1.6 µM, 6.4e-05 µM and 0.0094 µM.
On the same counts, the results for `N=C(N)c1ccc(CNC(=O)CNC(=O)[C@@H](CC2CCCCC2)NS(=O)(=O)Cc2ccccc2)cc1` [Inhibitor 82] are 0.33 µM, 1.4 µM, 0.023 µM and 0.1 µM.
Take `CC(C)(C)OC[C@@H](NS(=O)(=O)Cc1ccccc1)C(=O)N[C@@H](CO)CC(=O)NCc1ccc(C(=N)N)cc1` [Inhibitor 42]: the Ki is 0.74 µM on human factor XIa, more than 1000 µM on human factor XIIa, 13 µM at thrombin and 0.21 µM at plasma kallikrein (PK).
Consider `N=C(N)c1ccc(CNC(=O)[C@H](CO)NC(=O)[C@@H](CO)NS(=O)(=O)Cc2ccccc2)cc1` [Inhibitor 15], for which the Ki on human factor XIa was found to be 0.3 µM; on human factor XIIa, 80 µM; at thrombin, 14 µM; on plasma kallikrein (PK) it was 0.16 µM.
For `C[C@H](NC(=O)[C@@H](CO)NS(=O)(=O)Cc1ccc(C(=O)O)cc1)C(=O)NCc1ccc(C(=N)N)cc1` [Inhibitor 22], the Ki on human factor XIa is 0.015 µM; on human factor XIIa, 17 µM; at thrombin, 2.3 µM; on plasma kallikrein (PK), 0.016 µM.
With `N=C(N)c1ccc(CNC(=O)[C@H](CCCCN)NC(=O)[C@@H](CO)NS(=O)(=O)Cc2ccccc2)cc1` [Inhibitor 10], the Ki at human factor XIa came out at 0.89 µM; at human factor XIIa, 21 µM; on thrombin, 4.3 µM; on plasma kallikrein (PK), 0.016 µM.
As for `CC(C)(C)OCC(NS(=O)(=O)Cc1ccccc1)C(=O)NC(CCOCc1ccccc1)C(=O)NCc1ccc(C(=N)N)cc1` (centres unmarked) [Inhibitor 43], the Ki stood at 0.61 µM on human factor XIa, 80 µM at human factor XIIa, 0.5 µM at thrombin and 0.0082 µM at plasma kallikrein (PK).
With `N=C(N)c1ccc(CNC(=O)[C@H](CCC(=O)NCCCOCCOCCOCCCN)NC(=O)[C@@H](CC2CCCCC2)NS(=O)(=O)Cc2ccccc2)cc1` [Inhibitor 59], the Ki at human factor XIa was 0.04 µM; at human factor XIIa, 0.98 µM; on thrombin it was 0.015 µM; at plasma kallikrein (PK), 0.015 µM.
`N=C(N)c1ccc(CNC(=O)[C@H](CO)NC(=O)[C@@H](CO)NS(=O)(=O)Cc2ccc(C(=O)O)cc2)cc1` [Inhibitor 23]: the Ki at human factor XIa was 0.17 µM; at human factor XIIa it was more than 1000 µM; on thrombin it was 120 µM; at plasma kallikrein (PK), 0.029 µM.
On the same counts, the results for `COC(=O)c1ccc(CS(=O)(=O)N[C@H](Cc2cccc(C(=N)N)c2)C(=O)NCC(=O)NCc2ccc(C(=N)N)cc2)cc1` [Inhibitor 84] are 0.7 µM, 0.38 µM, 0.53 µM and 0.14 µM.
On the same counts, the results for `CC(C)(C)OC[C@@H](NS(=O)(=O)Cc1ccccc1)C(=O)NC(CC(=O)O)CC(=O)NCc1ccc(C(=N)N)cc1` (some centres unmarked) [Inhibitor 32] are 8.2 µM, more than 1000 µM, more than 1000 µM and 8 µM.
Turning to `C[C@@H](O)[C@H](NC(=O)[C@@H](CO)NS(=O)(=O)Cc1ccccc1)C(=O)NCc1ccc(C(=N)N)cc1` [Inhibitor 13], the Ki on human factor XIa was 0.25 µM; at human factor XIIa it was 51 µM; at thrombin, 4 µM; on plasma kallikrein (PK), 0.24 µM.
In the case of `CC(C)(C)OC[C@@H](NS(=O)(=O)Cc1ccccc1)C(=O)N[C@@H](CCCNC(=N)N)C(=O)NCc1ccc(C(=N)N)cc1` [Inhibitor 37], the Ki is 0.34 µM at human factor XIa, 2.6 µM on human factor XIIa, 0.065 µM at thrombin and 0.04 µM on plasma kallikrein (PK).
On the same counts, the results for `N=C(N)NCC[C@@H](NS(=O)(=O)Cc1ccccc1)C(=O)NCC(=O)NCc1ccc(C(=N)N)cc1` [Inhibitor 80] are 0.49 µM, 0.34 µM, 2.1 µM and 0.068 µM.
On the same counts, the results for `C[C@H](NC(=O)[C@@H](CO)NS(=O)(=O)Cc1ccccc1)C(=O)NCc1ccc(C(=N)N)cc1` [Inhibitor 2] are 0.11 µM, 9.2 µM, 0.11 µM and 0.07 µM.
With `COC(=O)c1ccc(CS(=O)(=O)N[C@H](CO)C(=O)N[C@@H](CO)C(=O)NCc2ccc(C(=N)N)cc2)cc1` [Inhibitor 24], the Ki on human factor XIa was determined as 0.87 µM; on human factor XIIa, 19 µM; on thrombin, 4.2 µM; at plasma kallikrein (PK), 0.16 µM.
On the same counts, the results for `CC(C)(C)OC[C@@H](NS(=O)(=O)Cc1ccccc1)C(=O)N[C@@H](COCc1ccccc1)C(=O)NCc1ccc(C(=N)N)cc1` [Inhibitor 41] are 0.2 µM, 1.4 µM, 0.012 µM and 0.012 µM.
The corresponding values for `N=C(N)c1ccc(CNC(=O)CNC(=O)C(CO)NS(=O)(=O)Cc2ccccc2)cc1` (centres unmarked) [Inhibitor 1] are 2.2 µM, 16 µM, 13 µM and 1.7 µM.
Take `N=C(N)c1ccc(CNC(=O)CNC(=O)[C@@H](Cc2cccc(C(=N)N)c2)NS(=O)(=O)Cc2ccccc2)cc1` [Inhibitor 77]: the Ki at human factor XIa was determined as 0.25 µM; at human factor XIIa, 0.19 µM; at thrombin, 0.085 µM; at plasma kallikrein (PK), 0.082 µM.
In the case of `N=C(N)c1ccc(CNC(=O)CNC(=O)[C@@H](CO)NS(=O)(=O)Cc2ccc(C(=O)O)cc2)cc1` [Inhibitor 20], the Ki on human factor XIa was 0.6 µM; at human factor XIIa, more than 1000 µM; on thrombin it was 170 µM; at plasma kallikrein (PK), 0.7 µM.
Turning to `C[C@H](NC(=O)[C@@H](COC(C)(C)C)NS(=O)(=O)Cc1ccc(C(=O)O)cc1)C(=O)NCc1ccc(C(=N)N)cc1` [Inhibitor 48], the Ki on human factor XIa came out at 0.0069 µM; at human factor XIIa, 9.5 µM; on thrombin, 0.044 µM; at plasma kallikrein (PK), 0.0062 µM.
On the same counts, the results for `N=C(N)c1ccc(CNC(=O)[C@H](CCCCNC(=O)OCc2ccccc2)NC(=O)[C@@H](CC2CCCCC2)NS(=O)(=O)Cc2ccccc2)cc1` [Inhibitor 54] are 0.34 µM, 4 µM, 0.015 µM and 0.02 µM.
The corresponding values for `N=C(N)c1ccc(CNC(=O)[C@H](CCCCN)NC(=O)[C@@H](CC2CCCCC2)NS(=O)(=O)Cc2ccccc2)cc1` [Inhibitor 53] are 0.15 µM, 0.83 µM, 0.01 µM and 0.0023 µM.
Regarding `N=C(N)c1ccc(CNC(=O)[C@H](CCC(N)=O)NC(=O)[C@@H](CO)NS(=O)(=O)Cc2ccccc2)cc1` [Inhibitor 6], the Ki came out at 0.13 µM at human factor XIa, 25 µM on human factor XIIa, 0.49 µM at thrombin and 0.047 µM at plasma kallikrein (PK).

Usually Ki stands for a measure of affinity in units of concentration, obtained from inhibition or displacement.

The record behind these values is US9365613B2, “Acylated 4-amidino- and -4-guanidinobenzylamines for inhibition of plasma kallikrein” (The Medicines Company (Leipzig) GmbH, priority 2003, dated 2016).
